Read-outs that look alike come from different tables or passages of the source. Values belong to the compound of their own block, whether it stands above or below them.
Tests used:
[1] = tested on: activation of MAP kinase in whole cells; assay: Whole cell MAP kinase assay (in vivo, cell culture); type: cell-based
Method: To determine if compounds were able to block activation of MAP kinase in whole cells, the following protocol was used: Cells were plated in multi-well plates and grown to confluence. Cells were then serum-deprived overnight. Cells were exposed to the desired concentrations of compound or vehicle (DMSO) for 30 minutes, followed by addition of a growth factor, eg, PDGF (100 ng/mL). After a 5-minute treatment with the growth factor, cells were washed with PBS, then lysed in a buffer consisting of 70 mM NaCl, 10 mM HEPES (pH 7.4), 50 mM glycerol phosphate, and 1% Triton X-100. Lysates were clarified by centrifugation at 13,000×g for 10 minutes. Five micrograms of the resulting supernatants were incubated with 10 μg microtubule associated protein-2 (Map2) for 15 minutes at 30° C. in a final volume of 25 μL containing 50 mM Tris (pH 7.4), 10 mM MgCl2, 2 mM EGTA and 30 μM [γ-^32P]ATP. Reactions were terminated by addition of Laemmli sample buffer. Phosphorylated Map2 was resolved on 7.5% acrylamide gels and incorporated radioactivity determined by autoradiography and subsequent excision of the bands followed by scintillation counting.

p45MEK (GST-MEK) = p45MEK (GST-MEK) (Homo sapiens, UniProt Q02750); assay: Cascade assay for inhibitors of the MAP kinase pathway (in vitro); type: biochemical
Method: Incorporation of ^32P into myelin basic protein (MBP) was assayed in the presence of a glutathione S-transferase fusion protein containing p44MAP kinase (GST-MAPK) and a glutathione S-transferase fusion protein containing p45MEK (GST-MEK). The assay solution contained 20 mM HEPES, pH 7.4, 10 mM MgCl2, 1 mM MnCl2, 1 mM EGTA, 50 μM [γ-^32P]ATP, 10 μg GST-MEK, 0.5 μg GST-MAPK and 40 μg MBP in a final volume of 100 μL. […] Compounds were assessed at 10 μM for ability to inhibit incorporation of ^32P.
To ascertain whether compounds were inhibiting GST-MEK or GST MAPK, two additional protocols were employed. In the first protocol, compounds were added to tubes containing GST-MEK, followed by addition of GST-MAPK, MBP and [γ-^32P]ATP. In the second protocol, compounds were added to tubes containing both GST-MEK and GST-MAPK, followed by MBP and [γ-^32P]ATP.

[2] = tested on: murine colon tumor, C26/clone 10; assay: Murine colon tumor C26/clone 10 implanted subcutaneously in mice; type: in vivo, Male CD2F1 mice; settings: for Change in Body Weight / Non-Specific Deaths: Days 1 through 14
Method: Male CD2F1 mice (NCI: Charles River, Kingston) were implanted subcutaneously with tumor fragments (approximately 30 mg) in the region of the right axilla on Day 0. […] The vehicle for the test compound, and for control animals, was 10% EtOH/10% Cremophor-EL (Sigma)/80% H2O, pH 5.0. Tumor volumes were recorded three times per week by measuring the length and width of the individual tumors and calculating mass in milligrams according to the formula (a×b^2)/2, where a and b are the length and width of the tumor. Percent treated/control (T/C) was calculated based on the ratio of the median tumor volume of the treated tumors compared with the median tumor volume of control animals on specified measurement days.

- IC50 [1]: 5 nM
- IC50 (p45MEK (GST-MEK)): 1 nM
Compound: Cc1cc(I)ccc1Nc1c(C(=O)NO)ccc(F)c1F [Example 84, 3,4-Difluoro-N-hydroxy-2-(4-iodo-2-methyl-phenylamino)-benzamide]

- IC50 [1]: 300 nM
- IC50 (p45MEK (GST-MEK)): 5 nM
Compound: O=C(NOCC1CCC1)c1ccc(F)c(F)c1Nc1ccc(I)cc1Cl [Example 89, 3,4-Difluoro-2-(2-chloro-4-iodo-phenylamino)-N-cyclobutylmethoxy-benzamide]

- IC50 [1]: 50 nM
- IC50 (p45MEK (GST-MEK)): 10 nM
Compound: O=C(NO)c1cc(Br)c(F)c(F)c1Nc1ccc(I)cc1Cl [Example 93, 5-Bromo-2-(2-chloro-4-iodo-phenylamino)-3,4-difluoro-N-hydroxy-benzamide]

- IC50 [1]: > 1000 nM
- IC50 (p45MEK (GST-MEK)): 26 nM
Compound: Cc1cc(I)ccc1Nc1c(C(=O)NOCC2CCCCC2)cc(Br)c(F)c1F [Example 100, 5-Bromo-N-cyclohexylmethoxy-3,4-difluoro-2-(4-iodo-2-methyl-phenylamino)-benzamide]

- IC50 (p45MEK (GST-MEK)): 35 nM
Compound: CC=CCONC(=O)c1ccc(F)c(F)c1Nc1ccc(I)cc1C [Example 74, N-(But-2-enyloxy)-3,4-difluoro-2-(4-iodo-2-methyl-phenylamino)-benzamide]

- IC50 (p45MEK (GST-MEK)): 19 nM
Compound: Cc1cc(I)ccc1Nc1c(C(=O)NOCc2cccs2)ccc(F)c1F [Example 63, 3,4-Difluoro-2-(4-iodo-2-methyl-phenylamino)-N-(thiophen-2-ylmethoxy)-benzamide]

- IC50 (p45MEK (GST-MEK)): 57 nM
Compound: C=C(C)CONC(=O)c1ccc(F)cc1Nc1ccc(I)cc1C [Example 65, 4-Fluoro-2-(4-iodo-2-methyl-phenylamino)-N-(2-methyl-allyloxy)-benzamide]

- IC50 (p45MEK (GST-MEK)): 69 nM
Compound: O=C(NOC1CCCCO1)c1ccc(F)cc1Nc1ccc(I)cc1Cl (centres unmarked) [Example 88, 2-(2-Chloro-4-iodo-phenylamino)-4-fluoro-N-(tetrahydro-pyran-2-yloxy)-benzamide]

- IC50 (p45MEK (GST-MEK)): 259 nM
Compound: Cc1cc(I)ccc1Nc1cc(F)ccc1C(=O)NOCCOc1ccccc1 [Example 59, 4-Fluoro-2-(4-iodo-2-methyl-phenylamino)-N-(2-phenoxy-ethoxy)-benzamide]

- IC50 (p45MEK (GST-MEK)): < 10 nM
Compound: O=C(NOCC1CC1)c1cc(Br)c(F)c(F)c1Nc1ccc(I)cc1Cl [Example 96, 5-Bromo-2-(2-chloro-4-iodo-phenylamino)-N-cyclopropylmethoxy-3,4-difluoro-benzamide]

- IC50 (p45MEK (GST-MEK)): 15 nM
Compound: Cc1cc(I)ccc1Nc1c(C(=O)NOCCN2CCOCC2)cc(Br)c(F)c1F [Example 97, 5-Bromo-3,4-difluoro-2-(4-iodo-2-methyl-phenylamino)-N-(2-morpholin-4-yl-ethoxy)-benzamide]

- IC50 (p45MEK (GST-MEK)): 181 nM
Compound: Cc1cc(Br)ccc1Nc1c(C(=O)NOCC2CC2)ccc(F)c1F [Example 57, 2-(4-Bromo-2-methyl-phenylamino)-N-cyclopropylmethoxy-3,4-difluoro-benzamide]

- IC50 (p45MEK (GST-MEK)): 17 nM
Compound: Cc1cc(I)ccc1Nc1cc(F)c([N+](=O)[O-])cc1C(=O)NO [Example 81, 4-Fluoro-N-hydroxy-2-(4-iodo-2-methyl-phenylamino)-5-nitro-benzamide]

- IC50 (p45MEK (GST-MEK)): 25 nM
Compound: CCN(CC)CCONC(=O)c1cc(Br)c(F)c(F)c1Nc1ccc(I)cc1C [Example 98, 5-Bromo-N-(2-diethylamino-ethoxy)-3,4-difluoro-(4-iodo-2-methyl-phenylamino)-benzamide]

- IC50 (p45MEK (GST-MEK)): 16 nM
Compound: CC=CCONC(=O)c1ccc(F)c(F)c1Nc1ccc(I)cc1C [Example 69, N-(But-2-enyloxy)-3,4-difluoro-2-(4-iodo-2-methyl-phenylamino)-benzamide]

- IC50 (p45MEK (GST-MEK)): 80 nM
Compound: Cc1cc(I)ccc1Nc1cc(F)ccc1C(=O)N(O)C(C)C [Example 78, 4-Fluoro-N-hydroxy-2-(4-iodo-2-methyl-phenylamino)-N-isopropyl-benzamide]

Continued, compound first:

Compound: O=C(NOCC1CC1)c1ccc(F)c(F)c1Nc1ccc(I)cc1Cl [Example 95, 3,4-Difluoro-2-(2-chloro-4-iodo-phenylamino)-N-cyclopropylmethoxy-benzamide]
- % Inhibition ([2]; IP, 48 mg/kg/day, Day 15): 59%
- Change in Body Weight ([2]; IP, 48 mg/kg/day): +3 grams
- Non-Specific Deaths ([2]; IP, 48 mg/kg/day): 0/6
- % Inhibition ([2]; IP, 77 mg/kg/day, Day 15): 98%
- Change in Body Weight ([2]; IP, 77 mg/kg/day): +2 grams
- Non-Specific Deaths ([2]; IP, 77 mg/kg/day): 2/5
- % Inhibition ([2]; IP, 124 mg/kg/day, Day 15): 96%
- Change in Body Weight ([2]; IP, 124 mg/kg/day): +3 grams
- Non-Specific Deaths ([2]; IP, 124 mg/kg/day): 1/6
- % Inhibition ([2]; IP, 200 mg/kg/day, Day 15): 100%
- Change in Body Weight ([2]; IP, 200 mg/kg/day): +2 grams
- Non-Specific Deaths ([2]; IP, 200 mg/kg/day): 1/6
- % Inhibition ([2]; PO, 71 mg/kg/day, Day 17): 64%
- Change in Body Weight ([2]; PO, 71 mg/kg/day): +2 grams
- Non-Specific Deaths ([2]; PO, 71 mg/kg/day): 0/6
- % Inhibition ([2]; PO, 115 mg/kg/day, Day 17): 79%
- Change in Body Weight ([2]; PO, 115 mg/kg/day): +2 grams
- Non-Specific Deaths ([2]; PO, 115 mg/kg/day): 1/6
- % Inhibition ([2]; PO, 186 mg/kg/day, Day 17): 75%
- Change in Body Weight ([2]; PO, 186 mg/kg/day): +2 grams
- Non-Specific Deaths ([2]; PO, 186 mg/kg/day): 0/6
- % Inhibition ([2]; PO, 300 mg/kg/day, Day 17): 83%
- Change in Body Weight ([2]; PO, 300 mg/kg/day): +2 grams
- Non-Specific Deaths ([2]; PO, 300 mg/kg/day): 0/6

Compound: 2-(4-bromo-2-methyl-phenylamino)-4-fluoro-N-hydroxy-benzamide [Example 3]
- IC50 ([1]; cell culture): 3000 nM
- IC50 (p45MEK (GST-MEK)): 72 nM

Compound: CCCONC(=O)c1cc(Br)c(F)c(F)c1Nc1ccc(I)cc1C [Example 45, 5-Bromo-3,4-difluoro-2-(4-iodo-2-methyl-phenylamino)-N-propoxy-benzamide]
- IC50 (p45MEK (GST-MEK)): 126 nM

Compound: Cc1cc(I)ccc1Nc1c(C(=O)NOC2CCC2)ccc(F)c1F [Example 50, N-Cyclobutyloxy-3,4-difluoro-2-(4-iodo-2-methyl-phenylamino)-benzamide]
- IC50 (p45MEK (GST-MEK)): 43 nM

Compound: Cc1cc(I)ccc1Nc1cc(F)ccc1C(=O)NOCC1CC1 [Example 55, N-Cyclopropylmethoxy-4-fluoro-2-(4-iodo-2-methyl-phenylamino)-benzamide]
- IC50 (p45MEK (GST-MEK)): 47 nM

Compound: C#CC(C)ONC(=O)c1ccc(F)c(F)c1Nc1ccc(Br)cc1C (centres unmarked) [Example 28, 2-(4-Bromo-2-methyl-phenylamino)-3,4-difluoro-N-(1-methyl-prop-2-ynyloxy)-benzamide]
- IC50 (p45MEK (GST-MEK)): 728 nM

Compound: Cc1ccccc1Nc1cc(F)ccc1C(=O)NO [Example 9, 4-Fluoro-N-hydroxy-2-(2-methylphenylamino)-benzamide]
- IC50 (p45MEK (GST-MEK)): 409 nM

Compound: C#CCCONC(=O)c1ccc(F)c(F)c1Nc1ccc(I)cc1C [Example 29, N-(But-3-ynyloxy)-3,4-difluoro-2-(4-iodo-2-methyl-phenylamino)-benzamide]
- IC50 (p45MEK (GST-MEK)): 76 nM

Compound: CCCONC(=O)c1ccc(F)c(F)c1Nc1ccc(I)cc1C [Example 43, 3,4-Difluoro-2-(4-iodo-2-methyl-phenylamino)-N-propoxy-benzamide]
- IC50 (p45MEK (GST-MEK)): 40 nM

Compound: CC=CCONC(=O)c1ccc(F)c(F)c1Nc1ccc(Br)cc1C [Example 70, 2-(4-Bromo-2-methyl-phenylamino)-N-(but-2-enyloxy)-3,4-difluoro-benzamide]
- IC50 (p45MEK (GST-MEK)): 224 nM

Compound: Cc1cc(I)ccc1Nc1c(C(=O)NOC2CCCC2)ccc(F)c1F [Example 53, N-Cyclopentyloxy-3,4-difluoro-2-(4-iodo-2-methyl-phenylamino)-benzamide]
- IC50 (p45MEK (GST-MEK)): 140 nM

Compound: Cc1cc(I)ccc1Nc1c(C(=O)NOCc2ccoc2)cc(Br)c(F)c1F [Example 23, 5-Bromo-3,4-difluoro-N-(furan-3-ylmethoxy)-2-(4-iodo-2-methyl-phenylamino)-benzamide]
- IC50 (p45MEK (GST-MEK)): 16 nM

Compound: C#CCCONC(=O)c1ccc(F)c(F)c1Nc1ccc(Br)cc1C [Example 30, 2-(4-Bromo-2-methyl-phenylamino)-N-(but-3-ynyloxy)-3,4-difluoro-benzamide]
- IC50 (p45MEK (GST-MEK)): 971 nM

Compound: 4-Fluoro-2-(4-iodo-2-methyl-phenylamino)-N-phenylmethoxy-benzamide [Example 77]
- IC50 (p45MEK (GST-MEK)): 280 nM

Compound: CC=CCONC(=O)c1cc(Br)c(F)c(F)c1Nc1ccc(I)cc1C [Example 24, 5-Bromo-N-(but-2-enyloxy)-3,4-difluoro-2-(4-iodo-2-methyl-phenylamino)-benzamide]
- IC50 (p45MEK (GST-MEK)): 21 nM

Source: US7169816B2, “4-bromo or 4-iodo phenylamino benzhydroxamic acid derivatives and their use as MEK inhibitors” (Warner-Lambert Company, priority 1997, dated 2007)
